Measurements reported in USRE47267E1, “Pyridinecarboxamides as CXCR2 modulators” (Syntrix Biosystems, Inc., priority 2009, dated 2019).

How the values were obtained:
neutrophil influx [1] = test: Murine air pouch model of neutrophil chemotaxis (p.o.); format: in vivo, male CD-1 mice; conditions: for total neutrophil counts in the blood: high doses, compared to control animals, data not shown
Protocol: Compounds 1 (SX-517) and 2 (SX-576) were also assayed in an in vivo air-pouch model of inflammation. SX-517 and SX-576 were able to attenuate neutrophil influx in the air-pouch model by about 50% at an oral dose of 0.2 and 0.05 mg/kg, respectively. […] More specifically, the procedure was performed by forming an air pouch on the backs of male CD-1 mice via the subcutaneous injection of air (2 mL). The next day, an additional subcutaneous injection of air (1.5 mL) was performed to reinflate the air pouch. The mice were given either vehicle control (Labrasol®) or test compound solubilized in Labrasol® via oral gavage. After 3 hours, either sterile phosphate buffered saline (PBS, 1 ml) or 2% carrageenan in sterile PBS (1 mL) was injected into the air pouch. After 4 hours, the mice were sedated with ketamine, and sacrificed by cervical dislocation. The exudate in the air pouch was collected by syringe, with an additional 2 mL wash with sterile PBS. The neutrophils were stained with trypan blue and counted on a hemocytometer under 20× magnification.

Aqueous solubility = format: physicochemical
Source text: (§1) The lipid based excipient Gelucire® 44/14 is a self-emulsifying drug delivery system (SEDDS) that is able to solubilize both SX-517 and SX-576 into aqueous solutions via micellular formation. […] Therefore, lipid-based emulsifiers are important excipients for the oral delivery of SX-576.

CXCR2 [2] = biological target: T1, CXCR2 (Homo sapiens (Human), UniProt P25025); test: In vitro agonist activity: intracellular calcium release in human neutrophils in the absence of GROα; format: cell-based
T1 sequence (P25025 whole entry): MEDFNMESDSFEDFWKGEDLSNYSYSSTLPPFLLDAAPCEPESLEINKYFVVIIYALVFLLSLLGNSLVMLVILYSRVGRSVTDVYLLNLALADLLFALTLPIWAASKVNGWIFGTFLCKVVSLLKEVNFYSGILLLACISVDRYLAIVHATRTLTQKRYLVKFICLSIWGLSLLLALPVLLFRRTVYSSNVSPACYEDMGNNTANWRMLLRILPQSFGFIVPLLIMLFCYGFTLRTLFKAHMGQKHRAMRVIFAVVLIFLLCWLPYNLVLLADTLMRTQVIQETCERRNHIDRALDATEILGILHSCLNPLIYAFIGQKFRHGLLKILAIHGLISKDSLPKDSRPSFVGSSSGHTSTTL

[3] = Crossover pharmacokinetic experiment in Beagle dogs; format: in vivo; conditions: for plasma level: dosed to Beagle dogs without excipient, data not shown
Protocol: In this study, male Beagle dogs (n=5) were dosed intravenously on study day 1 with SX-576 in dimethylformamide/PEG400/saline (40:40:20) at a dose level of 5 mg/kg and a dose volume of 0.5 mL/kg. Blood samples were taken predose, and at time points 30, 60, 90, 120, 180, 360, 540 and 720 minutes. The blood was collected in tubes containing K2EDTA as an anticoagulant, and the tubes were centrifuged and the plasma fractions collected and frozen. After a one-week washout period, the same Beagle dogs were dosed orally with SX-576 in lipid based excipient Gelucire® 44/14 (Gattefosse) at a dose level of 5 mg/kg. Blood samples were then taken and plasma fractions collected as previously described. Prior to analysis, the plasma samples were thawed and diluted 1:3 into acetonitrile containing 1 μM of compound 153 as an internal standard. The resulting samples were centrifuged and the supernatant analyzed by LC-MS monitoring in multiple reaction monitoring mode. The samples were run concomitantly with a calibration curve of SX-576 in the same internal standard solution.
as §1

CXCR2 [4] = biological target: T1, CXCR2; test: β-arrestin recruitment to CXCR2 (β-galactosidase fragment complementation, DiscoveRx); conditions: for inhibition of β-arrestin recruitment following CXCR2 activation with IL-8: FIG. 2; for activity on β-arrestin complexation with CXCR2 in the absence of IL8: FIG. 3
neutrophil influx [5] = test: Murine air pouch model of neutrophil chemotaxis (i.v.); format: in vivo, male CD-1 mice; conditions: all tested dose levels 0.02, 0.05, 0.2 and 1.0 mg/kg, FIG. 6
Protocol: The procedure was performed by forming an air pouch on the backs of male CD-1 mice via the subcutaneous injection of air (2 mL). The next day, an additional subcutaneous injection of air (1.5 mL) was performed to reinflate the air pouch. The mice were given either vehicle control (dimethylformamide/PEG400/saline) or test compound solubilized in vehicle via tail vein injection. After 30 minutes, either sterile phosphate buffered saline (PBS, 1 ml) or 2% carrageenan in sterile PBS (1 mL) was injected into the air pouch. After 4 hours, the mice were sedated with ketamine, and sacrificed by cervical dislocation. The exudate in the air pouch was collected by syringe, with an additional 2 mL wash with sterile PBS. The neutrophils were stained with trypan blue and counted on a hemocytometer under 20× magnification.

[6] = test system: ozone-induced pulmonary inflammation; test: Ozone rat model of pulmonary inflammation; format: in vivo, Sprague-Dawley rats; conditions: 1 mg/kg i.v. at t=0, 5, 9 h, 1 ppm ozone 4 h
Protocol: Activity in this model of pulmonary inflammation would provide direct relevance towards the treatment of a number of pulmonary inflammatory diseases, including chronic obstructive pulmonary disease (COPD) and bronchopulmonary dysplasia (BPD). In this experiment, Sprague-Dawley rats (n=4 per cohort) were dosed intravenously at t=0 with either vehicle (negative and positive groups, dimethylformamide/PEG400/saline, 40:40:20) or SX-576 (1 mg/kg). The rats were then placed in air (negative group) or 1 ppm ozone (positive and SX-576 groups) for 4 hours. The rats were dosed again at t=5 and 9 hours. The rats were then sacrificed at t=24 hours, and the bronchoalveolar lavage fluid (BALF) was collected. The cells were spun down, stained with Wright-Giemsa and counted. In the negative groups, no neutrophils were observed when stained. As a measure of lung leakage/damage, protein levels were quantified in BALF by Bradford protein assay analysis.

CXCR2 [7] = biological target: T1, CXCR2; test: Wash-resistant inhibition of GROα-mediated intracellular calcium release in isolated human neutrophils; format: cell-based; conditions: 0.4, 2 and 10 μM, 30 min incubation, washed; time points out to 6 hours; FIG. 1
CXCR2 [8] = biological target: T1, CXCR2; test: Inhibition of GROα-mediated intracellular calcium release in human neutrophils (FLIPR-3 Ca2+ mobilization assay); format: cell-based; conditions: GROα 25 nM

Structure (SMILES)	total neutrophil counts in the blood (neutrophil influx [1])	aqueous solubility (Aqueous solubility)	plasma level [3]	inhibition of β-arrestin recruitment following CXCR2 activation with IL-8 (CXCR2 [4])	activity on β-arrestin complexation with CXCR2 in the absence of IL8 (CXCR2 [4])	IC50 (CXCR2 [8]) [nM]	also measured
O=C(Nc1ccc(F)cc1)c1ccc(SCc2ccccc2B(O)O)nc1 [Compound 1, 6-(2-borono-2-yl-benzylsulfanyl)-N-(4-fluoro-phenyl)-nicotinamide]	not significantly changed	poor	undetected	inhibited arrestin recruitment	acted as inverse agonists	–	neutrophil influx (neutrophil influx [1]; 0.005 and 0.2 p.o., FIG. 4): decrease of neutrophil influx; neutrophil influx (neutrophil influx [1]; doses in excess of 10 mg/kg p.o., FIG. 4): increase in neutrophil influx; agonist activity with respect to the release of intracellular calcium (CXCR2 [2]; listed as 1 (SX-517)): did not show agonist activity; agonist activity with respect to the release of intracellular calcium (CXCR2 [2]; listed as SX-517): did not exhibit any agonist activity
COc1ccc(B(O)O)c(CSc2ccc(C(=O)Nc3ccc(F)cc3)cn2)c1 [Compound 4, 6-(2-boronic acid-5-methoxy-benzylsulfanyl)-N-(4-fluoro-phenyl)-nicotinamide]	–	–	–	–	–	79	–
O=C(Nc1ccc(F)cc1)c1ccc(SC2CCOC2=O)nc1 (stereo not shown) [Compound 81]	–	–	–	–	–	> 5000	–

Now from value to compound, other results behind:

total neutrophil counts in the blood (neutrophil influx [1])	aqueous solubility (Aqueous solubility)	plasma level [3]	inhibition of β-arrestin recruitment following CXCR2 activation with IL-8 (CXCR2 [4])	activity on β-arrestin complexation with CXCR2 in the absence of IL8 (CXCR2 [4])	IC50 (CXCR2 [8]) [nM]	Structure (SMILES)	also measured
not significantly changed	poor	undetected	inhibited arrestin recruitment	acted as inverse agonists	–	O=C(Nc1ccc(F)cc1)c1ccc(SCc2cc(OC(F)(F)F)ccc2B(O)O)nc1 [Compound 2, 6-(2-boronic acid-5-trifluoromethoxy-benzylsulfanyl)-N-(4-fluoro-phenyl)-nicotinamide]	neutrophil influx (neutrophil influx [1]; 0.05 mg/kg p.o., FIG. 5): decrease of neutrophil influx; neutrophil influx (neutrophil influx [1]; doses in excess of 1 mg/kg p.o., FIG. 5): increase in neutrophil influx; neutrophil influx (neutrophil influx [5]): significantly attenuate neutrophil influx; influx of neutrophils into the lungs ([6]; BALF at 24 h, FIG. 7a): significantly decreased; influx of macrophages into the lungs ([6]; BALF at 24 h, FIG. 7b): significantly decreased; ozone-induced lung damage (protein levels in the BALF) ([6]; FIG. 7c): protected against ozone-induced lung damage; bioavailability following oral administration ([3]; Beagle dogs, 5 mg/kg oral in Gelucire 44/14): improved; inhibition of GROα mediated intracellular calcium release after inhibitor washout (CXCR2 [7]): dose-dependent and wash-resistant inhibition
–	–	–	–	–	> 5000	Cc1nn(-c2ccccc2)nc1CSc1ccc(C(=O)Nc2ccc(F)cc2)cn1 [Compound 48]	–
